Usually IC50 stands for the concentration that inhibits the measured activity by half. A higher IC50 goes with weaker potency in that assay.

The text below walks through data of patent publication US20230143612A1 (Arbutus Biopharma Corporation, priority 2020, published 2023).

PD-L1 His protein / PD-1 Fc protein, sequence (Q9NZQ7 19-238 limits assumed): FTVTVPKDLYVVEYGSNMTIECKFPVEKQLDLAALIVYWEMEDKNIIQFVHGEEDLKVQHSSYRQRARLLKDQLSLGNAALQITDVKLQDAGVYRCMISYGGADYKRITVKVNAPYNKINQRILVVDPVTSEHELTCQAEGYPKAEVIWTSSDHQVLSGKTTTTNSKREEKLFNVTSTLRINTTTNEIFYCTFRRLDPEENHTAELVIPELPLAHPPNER

The assay concerns the target PD-L1 His protein / PD-1 Fc protein (Homo sapiens, UniProt Q9NZQ7). The assay can be described thus: HTRF Assay (PD-1/PD-L1 interaction). Format: binding. As to conditions: PD-L1 His 6 nM, PD-1 Fc 6 nM. The procedure, abridged:
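HTRF: PD-L1 His (6 nM final), compound (3-fold dilutions, 20 μM to 0.001 μM final) and PD-1 Fc (6 nM final) preincubated 15 min at room temperature. Anti-human IgG-XL665 and anti-6HIS Tb cryptate (mixed at 6.7 nM and 0.35 nM) then added for 1 h at room temperature before reading.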
(In general: In TR-FRET formats the signal depends on donor and acceptor labels being close together.)
Turning to `COc1nc(-c2cccc(-c3cccc(-c4ccn5c(=O)c(CN[C@H]6C[C@](C)(O)C6)cnc5c4)c3Cl)c2Cl)cc(Cl)c1CNC[C@@H]1CCC(=O)N1` [Example 393, 8-(2,2′-Dichloro-3′-(4-chloro-6-methoxy-5-(((((S)-5-oxopyrrolidin-2-yl)methyl)amino)methyl)pyridin-2-yl)-[1,1′-biphenyl]-3-yl)-3-((((1r,3r)-3-hydroxy-3-methylcyclobutyl)amino)methyl)-4H-pyrido[1,2-a]pyrimidin-4-one], inhibition was half-maximal at 62 nM (IC50).
Consider `COc1cc(-c2cccc(-c3cccc(-c4cc5c(c(OC)c4)CN(C[C@@H]4CCC(=O)N4)CC5)c3Cl)c2Cl)cc2c1CN(C[C@@H]1CCC(=O)N1)CC2` [Example 394, (5S,5'S)-5,5′-((6,6′-(2,2′-Dichloro-[1,1′-biphenyl]-3,3′-diyl)bis(8-methoxy-3,4-dihydroisoquinoline-6,2(1H)-diyl))bis(methylene))bis(pyrrolidin-2-one)], for which the IC50 was found to be 71 nM.
Under `COc1nc(-c2cccc(-c3cccc(-c4cc5c(=O)n(C)c(CN(C)CCO)nn5c4)c3Cl)c2Cl)ccc1CNC[C@@H]1CCC(=O)N1` [Example 395, (S)-6-(2,2′-Dichloro-3′-(6-methoxy-5-((((5-oxopyrrolidin-2-yl)methyl)amino)methyl)pyridin-2-yl)-[1,1′-biphenyl]-3-yl)-2-(((2-hydroxyethyl)(methyl)amino)methyl)-3-methylpyrrolo[2,1-f][1,2,4]triazin-4(3H)-one] stands 6.7 nM.
On to `COc1nc(-c2cccc(-c3cccc(-c4ccn5c(=O)c6c(nc5c4)OCCNC6)c3Cl)c2Cl)ccc1CNC[C@@H]1CCC(=O)N1` [Example 396, (S)-10-(2,2′-Dichloro-3′-(6-methoxy-5-((((5-oxopyrrolidin-2-yl)methyl)amino)methyl)pyridin-2-yl)-[1,1′-biphenyl]-3-yl)-4,5-dihydro-2H-pyrido[1′,2′:1,2]pyrimido[5,4-f][1,4]oxazepin-6(3H)-one], for which the IC50 came out at 15 nM.
Under `COc1nc(-c2cccc(-c3cccc(-c4cc(OC)c5c(CNC[C@@H]6CCC(=O)N6)cnn5c4)c3Cl)c2Cl)ccc1CNC[C@@H]1CCC(=O)N1` [Example 397] stands 290 nM.
Under `COc1nc(-c2cccc(-c3cccc(-c4ccc5c(OC)c(CNC[C@@H]6CCC(=O)N6)cc(Cl)c5n4)c3Cl)c2Cl)cc(F)c1CNC[C@@H]1CCC(=O)N1` [Example 398, (S)-5-((((8-Chloro-2-(2,2′-dichloro-3′-(4-fluoro-6-methoxy-5-(((((S)-5-oxopyrrolidin-2-yl)methyl)amino)methyl)pyridin-2-yl)-[1,1′-biphenyl]-3-yl)-5-methoxyquinolin-6-yl)methyl)amino)methyl)pyrrolidin-2-one] stands 28 nM; under `CCc1nc2cc(-c3cccc(-c4cccc(-c5ccc(CNC[C@@H]6CCC(=O)N6)c(OC)n5)c4Cl)c3Cl)ccn2c(=O)c1CNC[C@@H]1CCC(=O)N1` [Example 399, 8-(2,2′-Dichloro-3′-(6-methoxy-5-(((((S)-5-oxopyrrolidin-2-yl)methyl)amino)methyl)pyridin-2-yl)-[1,1′-biphenyl]-3-yl)-2-ethyl-3-(((((S)-5-oxopyrrolidin-2-yl)methyl)amino)methyl)-4H-pyrido[1,2-a]pyrimidin-4-one], 110 nM.
Under `COc1nc(-c2cccc(-c3cccc(-c4cc(F)c5c(c4)CCN(CCNC[C@@H]4CCC(=O)N4)C5=O)c3Cl)c2Cl)ccc1CNC[C@@H]1CCC(=O)N1` [Example 400, 6-(2,2′-Dichloro-3′-(6-methoxy-5-(((((S)-5-oxopyrrolidin-2-yl)methyl)amino)methyl)pyridin-2-yl)-[1,1′-biphenyl]-3-yl)-8-fluoro-2-(2-((((S)-5-oxopyrrolidin-2-yl)methyl)amino)ethyl)-3,4-dihydroisoquinolin-1(2H)-one] stands 550 nM.
`COc1nc(-c2cccc(-c3cccc(-c4ncc5c(CNC[C@@H]6CCC(=O)N6)cn(C)c5n4)c3Cl)c2Cl)ccc1CNC[C@@H]1CCC(=O)N1` [Example 401, (S)-5-((((2-(2,2′-Dichloro-3′-(6-methoxy-5-(((((S)-5-oxopyrrolidin-2-yl)methyl)amino)methyl)pyridin-2-yl)-[1,1′-biphenyl]-3-yl)-7-methyl-7H-pyrrolo[2,3-d]pyrimidin-5-yl)methyl)amino)methyl)pyrrolidin-2-one] showed a half-inhibitory concentration (IC50) of 0.1 nM.
Under `COc1nc(-c2cccc(-c3cccc(-c4cc5c(cn4)c(CNC[C@@H]4CCC(=O)N4)cn5C)c3Cl)c2Cl)ccc1CNC[C@@H]1CCC(=O)N1` [Example 402, (S)-5-((((6-(2,2′-Dichloro-3′-(1-methyl-3-(((((S)-5-oxopyrrolidin-2-yl)methyl)amino)methyl)-1H-pyrrolo[3,2-c]pyridin-6-yl)-[1,1′-biphenyl]-3-yl)-2-methoxypyridin-3-yl)methyl)amino)methyl)pyrrolidin-2-one] stands 50 nM; under `COc1nc(-c2cccc(-c3cccc(-c4cnc5c(c4)CNCC(=O)N5)c3Cl)c2Cl)ccc1CNC[C@@H]1CCC(=O)N1` [Example 403, (S)-7-(2,2′-Dichloro-3′-(6-methoxy-5-((((5-oxopyrrolidin-2-yl)methyl)amino)methyl)pyridin-2-yl)-[1,1′-biphenyl]-3-yl)-1,3,4,5-tetrahydro-2H-pyrido[2,3-e][1,4]diazepin-2-one], 0.1 nM; under `COc1nc(-c2cccc(-c3cccc(-c4ccn5c(=O)c(CNC[C@@H]6CCC(=O)N6)c(C)nc5c4)c3Cl)c2Cl)cc(F)c1CNC[C@@H]1CCC(=O)N1` [Example 404, 8-(2,2′-Dichloro-3′-(4-fluoro-6-methoxy-5-(((((S)-5-oxopyrrolidin-2-yl)methyl)amino)methyl)pyridin-2-yl)-[1,1′-biphenyl]-3-yl)-2-methyl-3-(((((S)-5-oxopyrrolidin-2-yl)methyl)amino)methyl)-4H-pyrido[1,2-a]pyrimidin-4-one], 0.1 nM.
Under `COc1nc(-c2cccc(-c3cccc(-c4cc5c(=O)n(C)c(CNCC(C)(C)O)nn5c4)c3Cl)c2Cl)ccc1CNC[C@@H]1CCC(=O)N1` [Example 405, (S)-6-(2,2′-Dichloro-3′-(6-methoxy-5-((((5-oxopyrrolidin-2-yl)methyl)amino)methyl)pyridin-2-yl)-[1,1′-biphenyl]-3-yl)-2-(((2-hydroxy-2-methylpropyl)amino)methyl)-3-methylpyrrolo [2,1-f][1,2,4]triazin-4(3H)-one] stands 84 nM; under `COc1nc(-c2cccc(-c3cccc(-c4cc5c(=O)n(C)c(CNCCC(F)(F)F)nn5c4)c3Cl)c2Cl)ccc1CNC[C@@H]1CCC(=O)N1` [Example 406, (S)-6-(2,2′-Dichloro-3′-(6-methoxy-5-((((5-oxopyrrolidin-2-yl)methyl)amino)methyl)pyridin-2-yl)-[1,1′-biphenyl]-3-yl)-3-methyl-2-(((3,3,3-trifluoropropyl)amino)methyl)pyrrolo[2,1-f][1,2,4]triazin-4(3H)-one], 33 nM; under `COc1nc(-c2cccc(-c3cccc(-c4ccn5c(=O)c(CNC[C@H]6C[C@H]6CO)cnc5c4)c3Cl)c2Cl)ccc1CNC[C@@H]1CCC(=O)N1` [Example 408, 8-(2,2′-Dichloro-3′-(6-methoxy-5-(((((S)-5-oxopyrrolidin-2-yl)methyl)amino)methyl)pyridin-2-yl)-[1,1′-biphenyl]-3-yl)-3-(((((1S,2R)-2-(hydroxymethyl)cyclopropyl)methyl)amino)methyl)-4H-pyrido[1,2-a]pyrimidin-4-one], 1.1 nM.
In turn, `COc1nc(-c2cccc(-c3cccc(-c4ccn5c(=O)c(CNC[C@@H]6C[C@@H]6CO)cnc5c4)c3Cl)c2Cl)ccc1CNC[C@@H]1CCC(=O)N1` [Example 409, 8-(2,2′-Dichloro-3′-(6-methoxy-5-(((((S)-5-oxopyrrolidin-2-yl)methyl)amino)methyl)pyridin-2-yl)-[1,1′-biphenyl]-3-yl)-3-(((((1R,2S)-2-(hydroxymethyl)cyclopropyl)methyl)amino)methyl)-4H-pyrido[1,2-a]pyrimidin-4-one] gave an IC50 of 0.2 nM.
The molecule `CN1CCNCc2ccc(-c3cccc(-c4cccc(-c5ccn6c(=O)c(CNC[C@@H]7CCC(=O)N7)cnc6c5)c4Cl)c3Cl)cc21` [Example 410, (S)-8-(2,2′-Dichloro-3′-(1-methyl-2,3,4,5-tetrahydro-1H-benzo[e][1,4]diazepin-8-yl)-[1,1′-biphenyl]-3-yl)-3-((((5-oxopyrrolidin-2-yl)methyl)amino)methyl)-4H-pyrido[1,2-a]pyrimidin-4-one] had a half-inhibitory concentration (IC50) of 120 nM.
As to `COc1nc(-c2cccc(-c3cccc(-c4ccc5c(CNC[C@H](C)O)cn(C)c5n4)c3Cl)c2Cl)ccc1CNC[C@@H]1CCC(=O)N1` [Example 411, (5S)-5-[[[6-[2-Chloro-3-[2-chloro-3-[3-[[[(2S)-2-hydroxypropyl]amino]methyl]-1-methyl-pyrrolo[2,3-b]pyridin-6-yl]phenyl]phenyl]-2-methoxy-3-pyridyl]methylamino]methyl]pyrrolidin-2-one], half-maximal inhibition (IC50) required 1.6 nM.
For `COc1nc(-c2cccc(-c3cccc(-c4ccc5c(CN(C)CCO)cn(C)c5n4)c3Cl)c2Cl)ccc1CNC[C@@H]1CCC(=O)N1` [Example 412, (5S)-5-[[[6-[2-Chloro-3-[2-chloro-3-[3-[[2-hydroxyethyl(methyl)amino]methyl]-1-methyl-pyrrolo[2,3-b]pyridin-6-yl]phenyl]phenyl]-2-methoxy-3-pyridyl]methylamino]methyl]pyrrolidin-2-one], the 50% inhibitory concentration (IC50) came to 5.2 nM.
Under `COc1nc(-c2cccc(-c3cccc(-c4ccc5c(CNC[C@@H]6CCO6)cn(C)c5n4)c3Cl)c2Cl)ccc1CNC[C@@H]1CCC(=O)N1` [Example 413, (5S)-5-[[[6-[2-Chloro-3-[2-chloro-3-[1-methyl-3-[[[(2S)-oxetan-2-yl]methylamino]methyl]pyrrolo[2,3-b]pyridin-6-yl]phenyl]phenyl]-2-methoxy-3-pyridyl]methylamino]methyl]pyrrolidin-2-one] stands 190 nM.
